In US20050059585A1, “Methionine aminopeptidase-2 inhibitors and methods of use thereof” (Praecis Pharmaceuticals Inc., priority 2000, published 2005):

What was measured:
Assay in all cases: tumor cell line panel, SRB growth assay
Type in all cases: cell-based
PC-3 = details: Homo sapiens; PC-3, Prostate, 48 hours
Description: (§1) The compound of example 5 was also evaluated against a panel of cancer cell lines (Alley, M.C. et al. […] Cancer Research 48: 589-601; Grever, M. R., et al. (1992) Seminars in Oncology, Vol. 19, No. 6, pp 622-638; Boyd, M. R., and Paull, K. D. (1995) Drug Development Research 34: 91-109). The human tumor cell lines of the cancer screening panel were grown in RPMI 1640 medium containing 5% fetal bovine serum and 2 mM L-glutamine. Cells were inoculated into 96 well microtiter plates in 100 μL at plating densities ranging from 5,000 to 40,000 cells/well depending on the doubling time of individual cell lines. After cell inoculation, the microtiter plates were incubated at 37° C., 5 % CO2, 95 % air and 100 % relative humidity for 24 hours prior to addition of experimental drugs.
(§2) After the 24 hour incubation period, two plates of each cell line were fixed in situ with TCA, to represent a measurement of the cell population for each cell line at the time of drug addition (Tz). Experimental drugs were solubilized in dimethyl sulfoxide at 400-fold the desired final maximum test concentration and stored frozen prior to use. At the time of drug addition, an aliquot of frozen concentrate was thawed and diluted to twice the desired final maximum test concentration with complete medium containing 50 μg/ml gentamicin. Additional four, 10-fold or ½ log serial dilutions were made to provide a total of five drug concentrations plus control. Aliquots of 100 μl of these different drug dilutions were added to the appropriate microtiter wells already containing 100 μl of medium, resulting in the required final drug concentrations.
(§3) Following drug addition, the plates were incubated for an additional 48 hours at 37° C., 5 % CO2, 95 % air, and 100 % relative humidity. For adherent cells, the assay was terminated by the addition of cold TCA. Cells were fixed in situ by the gentle addition of 50 μl of cold 50 % (w/v) TCA (final concentration, 10% TCA) and incubated for 60 minutes at 4° C. The supernatant was discarded, and the plates were washed five times with tap water and air dried. Sulforhodamine B (SRB) solution (100 μl) at 0.4 % (w/v) in 1 % acetic acid were added to each well, and plates were incubated for 10 minutes at room temperature. After staining, unbound dye was removed by washing five times with 1 % acetic acid and the plates were air dried. Bound stain was subsequently solubilized with 10 mM trizma base, and the absorbance was read on an automated plate reader at a wavelength of 515 nm. For suspension of the cells, the methodology used was the same except that the assay was terminated by fixing settled cells at the bottom of the wells by gently adding 50 μl of 80 % TCA (final concentration, 16% TCA). Using the seven absorbance measurements [time zero, (Tz), control growth, (C), and test growth in the presence of drug at the five concentration levels (Ti)], the percentage growth was calculated at each of the drug concentrations levels.
(§4) Percentage growth inhibition was calculated as: [(Ti−Tz)/(C−Tz)]×100 for concentrations for which Ti>/=Tz [(Ti−Tz)/Tz]×100 for concentrations for which Ti<Tz.
(§5) Growth inhibition of 50% (GI50) was calculated from [(Ti−Tz)/(C−Tz)]×100=50, which is the drug concentration resulting in a 50% reduction in the net protein increase (as measured by SRB staining) in control cells during the drug incubation. The G150 was calculated for each of the cell lines if the level of activity is reached; however, if the effect was not reached or is exceeded, the value for that parameter is expressed as greater or less than the maximum (10^−4 M) or minimum (10^−8 M) concentration tested.

NCI-H226 = details: Homo sapiens; NCI-H226, Non-Small Cell Lung, 48 hours
Description: as §1, §2, §3, §4, §5

RPMI-8226 = details: Homo sapiens; RPMI-8226, Leukemia, 48 hours
Description: as §1, §2, §3, §4, §5

HCT-116 = details: Homo sapiens; HCT-116, Colon, 48 hours
Description: as §1, §2, §3, §4, §5

A498 = details: Homo sapiens; A498, Renal, 48 hours
Description: as §1, §2, §3, §4, §5

EKVX = details: Homo sapiens, Non-Small Cell Lung, 48 hours
Description: as §1, §2, §3, §4, §5

SF-539 = details: Homo sapiens; SF-539, CNS, 48 hours
Description: as §1, §2, §3, §4, §5

MALME-3M = details: Homo sapiens, Melanoma, 48 hours
Description: as §1, §2, §3, §4, §5

HOP-92 = details: Homo sapiens; HOP-92, Non-Small Cell Lung, 48 hours
Description: as §1, §2, §3, §4, §5

SK-MEL-28 = details: Homo sapiens; SK-MEL-28, Melanoma, 48 hours
Description: as §1, §2, §3, §4, §5

TK-10 = details: Homo sapiens; TK-10, Renal, 48 hours
Description: as §1, §2, §3, §4, §5

HOP-62 = details: Homo sapiens; HOP-62, Non-Small Cell Lung, 48 hours
Description: as §1, §2, §3, §4, §5

NCI/ADR-RES = details: Homo sapiens, Breast, 48 hours
Description: as §1, §2, §3, §4, §5

786-0 = details: Homo sapiens; 786-0, Renal, 48 hours
Description: as §1, §2, §3, §4, §5

RXF 393 = details: Homo sapiens; RXF 393, Renal, 48 hours
Description: as §1, §2, §3, §4, §5

SNB-75 = details: Homo sapiens; SNB-75, CNS, 48 hours
Description: as §1, §2, §3, §4, §5

UACC-62 = details: Homo sapiens; UACC-62, Melanoma, 48 hours
Description: as §1, §2, §3, §4, §5

NCI-H23 = details: Homo sapiens; NCI-H23, Non-Small Cell Lung, 48 hours
Description: as §1, §2, §3, §4, §5

SR = details: Homo sapiens, Leukemia, 48 hours
Description: as §1, §2, §3, §4, §5

MCF7 = details: Homo sapiens; MCF7, Breast, 48 hours
Description: as §1, §2, §3, §4, §5

SF-295 = details: Homo sapiens; SF-295, CNS, 48 hours
Description: as §1, §2, §3, §4, §5

CO[C@@H]1[C@H](OC(=O)N[C@@H](C(N)=O)C(C)C)CC[C@]2(CO2)[C@H]1[C@@]1(C)O[C@@H]1CC=C(C)C [Example 5, (1-Carbamoyl-2-methyl-propyl)-carbamic acid-(3R, 4S, 5S, 6R )-5-methoxy-4-[(2R, 3R)-2-methyl-3-(3-methyl-but-2-enyl)-oxiranyl]-1-oxa-spiro[2.5]oct-6-yl ester]
GI50 (PC-3): 18 µM
GI50 (NCI-H226): 0.791 µM
GI50 (RPMI-8226): < 0.01 µM
GI50 (HCT-116): < 0.01 µM
GI50 (A498): > 100 µM
GI50 (EKVX): 20.8 µM
GI50 (SF-539): 20.6 µM
GI50 (MALME-3M): 0.0531 µM
GI50 (HOP-92): 33.9 µM
GI50 (SK-MEL-28): 5.96 µM
GI50 (TK-10): 0.0543 µM
GI50 (HOP-62): < 0.01 µM
GI50 (NCI/ADR-RES): 34.2 µM
GI50 (786-0): 16.1 µM
GI50 (RXF 393): 40.2 µM
GI50 (SNB-75): 90.9 µM
GI50 (UACC-62): < 0.01 µM
GI50 (NCI-H23): 6.34 µM
GI50 (SR): < 0.01 µM
GI50 (MCF7): 12.4 µM
GI50 (SF-295): < 0.01 µM
